# Key:
# C57BL/6 mice [1] = assay: Thioglycolate induced peritonitis (peritoneal neutrophil infiltration); conditions: for cell infiltration, particularly neutrophil, to the peritoneal cavity: three days
# Procedure: Peritoneal cells were collected four hours after TG injection. Total cells were counted by haematocytometer and neutrophils were morphologically identified.
# 4 hours post TG injection total peritoneal cells were harvested and counted. Neutrophils were identified morphologically and counted.
# One day after the last treatment, mice received intraperitoneal injection of 2 ml thioglycollate medium. […] Three hours after the thioglycollate injection, neutrophil infiltration to the peritoneum was evaluated.
# C57BL/6 mice [2] = assay: In vivo evaluation of adverse effects of TLR7 conjugates; conditions: 10 nmoles per mouse with OVA
# Procedure: Immunological reaction initiation (e.g. adjuvanticity) by TLR7 conjugates was also examined. Groups (n=5) of C57BL/6 mice were subcutaneously immunized with 20 μg ovalbumin (OVA) mixed with approximately 10 nmol of various TLR7 conjugates, on days 0 and 7, where 10 nmol is a dosage target for the TLR7 portion of the conjugate, and the actual amount will be dependent on the actual chemical formula of each conjugate. […] Sera were collected on days 0, 7, 14, 21, 28, 42 and 56. Mice immunized with saline or OVA mixed with vehicle served as controls. Mice were sacrificed on day 56 and the spleens were harvested for preparation of splenocytes and histological slides. Approximately 200 microliters of a 2.5×10^6/mL spleen cell stock were aliquoted into round-bottom tissue culture microtiter plates in triplicate in a total volume of 200 μl RPMI 1640 complete medium [RPMI1640 (Irvine Scientific, Irvine, Calif.) supplemented with 10% heat-inactivated FCS, 2 mM L-glutamine, and 100 U/mL penicillin/100 μg/mL streptomycin] and restimulated with either 100 μg/mL OVA or medium alone. […] Sections 5 μm thick were stained with hematoxylin and eosin (H&E) and evaluated under the microscope. […]
# Therefore, as part of the experimental protocol, body weight and skin reaction (at site of injection) of the mice immunized, with lipid-TLR7 agonist conjugates, was monitored. […]
# [3] = 50 nmoles i.v. for three days before thioglycolate
Compound,neutrophils recruited to the peritoneum (C57BL/6 mice [1]; [3]),total cells recruited to the peritoneum (C57BL/6 mice [1]; [3]),"adverse reaction compared to TG (C57BL/6 mice [1]; mouse, in vivo)","cell infiltration, particularly neutrophil, to the peritoneal cavity (C57BL/6 mice [1]; oral route)","cell infiltration, particularly neutrophil, to the peritoneal cavity (C57BL/6 mice [1]; systemic (intravenous) route)",average body weights versus mice injected saline (C57BL/6 mice [2])
"COCCOc1nc(N)c2nc(O)n(Cc3ccc(C(=O)NCCOCCOCCOCCOCCOCCOCCOCCOCCOCCOCCn4cc(CCC(=O)O)nn4)cc3)c2n1 [Compound 8, 3-(1-(1-(4-((6-amino-8-hydroxy-2-(2-methoxyethoxy)-9H-purin-9-yl)methyl)phenyl)-1-oxo-5,8,11,14,17,20,23,26,29,32-decaoxa-2-azatetratriacontan-34-yl)-1H-1,2,3-triazol-4-yl)propanoic acid]",reduction,reduction,no additional adverse reaction,reduced cell infiltration,reduced cell infiltration,
"CCCCCCCC/C=C\CCCCCCCC(=O)OCC(COP(=O)(O)OCCNC(=O)c1ccc(Cn2c(=O)[nH]c3c(N)nc(OCCOC)nc32)cc1)OC(=O)CCCCCCC/C=C\CCCCCCCC (stereo not drawn) [Compound 6, 2-(4-((6-amino-2-(2-methoxyethoxy)-8-oxo-7H-purin-9(8H)-yl)methyl)benzamido)ethyl 2,3-bis(oleoyloxy)propyl phosphate]",,,,,,No significant differences
